Experimental data published in US7696248B2 (Eli Lilly and Company, priority 2005, dated 2010).

Target: cloned human glucagon receptor (Homo sapiens, UniProt P47871)
Assay: Glucagon Receptor (hGlucR) Binding Assay
Method: This plasmid DNA is transfected into 293 HEK cells and selected with 200 μg/mL Hygromycin.
Crude plasma membranes are prepared using cells from suspension culture. The cells are lysed on ice in hypotonic buffer containing 25 mM Tris HCL, pH 7.5, 1 mM MgCl2, DNAse1, 20 u/mL, and Roche Complete Inhibitors-without EDTA. The cell suspension is homogenized with a glass dounce homogenizer using a Teflon pestle for 25 strokes. The homogenate is centrifuged at 4 degrees C. at 1800×g for 15 mins. The supernate is collected and the pellet is resuspended in hypotonic buffer and rehomogenized. The mixture is centrifuged at 1800×g for 15 mins. The second supernate is combined with the first supernate. The combined supernates are recentrifuged at 1800×g for 15 mins to clarify. The clarified supernate is transferred to high speed tubes and centrifuged at 25000×g for 30 minutes at 4 degrees C. The membrane pellet is resuspended in homogenization buffer and stored as frozen aliquots at −80 degree C. freezer until needed.
The specific activity is 2200 Ci/mmol.
The binding buffer contains 25 mM Hepes, pH 7.4, 2.5 mM CaCl2, 1 mM MgCl2, 0.1% fatty acid free BSA, (ICN), 0.003% tween-20, and Roche Complete Inhibitors without EDTA. […] Test compounds are dissolved in DMSO and serially diluted in DMSO. […] Plates are read with a MicroBeta after 14 hours of settling time at room temp. […]

cloned human glucagon receptor, sequence (P47871 26-477): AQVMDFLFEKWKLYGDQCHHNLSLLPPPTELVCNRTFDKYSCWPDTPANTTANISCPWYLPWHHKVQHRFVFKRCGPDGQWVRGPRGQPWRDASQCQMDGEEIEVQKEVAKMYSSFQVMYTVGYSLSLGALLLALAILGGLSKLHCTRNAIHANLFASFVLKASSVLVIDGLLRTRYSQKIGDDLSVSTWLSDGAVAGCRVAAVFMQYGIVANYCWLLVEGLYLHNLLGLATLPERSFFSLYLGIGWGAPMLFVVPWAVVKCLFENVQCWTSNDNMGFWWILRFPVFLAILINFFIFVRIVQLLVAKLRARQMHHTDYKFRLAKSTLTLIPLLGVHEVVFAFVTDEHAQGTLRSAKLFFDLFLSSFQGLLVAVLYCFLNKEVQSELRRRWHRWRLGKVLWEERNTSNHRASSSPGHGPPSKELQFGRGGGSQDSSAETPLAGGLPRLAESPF

SMILES	Ki
CC(C)CC(Nc1ccc(-c2ccc(C(C)(C)C)cc2)cc1)c1ccc(C(=O)NCCC(=O)O)cc1 (centres unmarked)	40 nM
CCCCCC(Nc1ccc(-c2ccc(C#N)cc2)cc1)c1ccc(C(=O)NCCC(=O)O)cc1 (centres unmarked)	173 nM
